From patent publication US20070123492A1, “Analogs of lysophosphatidic acid and methods of making and using thereof” (priority 2003, published 2007)

Key:
[1] = molecular target: T1, LPA2 (Homo sapiens, UniProt Q9HBW0); assay: Agonist/antagonist activity in insect cells expressing LPA2; assay type: cell-based
T1 construct: expressed in transfected cells; host or cells: insect cells

[2] = molecular target: T2, LPA1 (Homo sapiens, UniProt Q92633); assay: Agonist/antagonist activity in insect cells expressing LPA1; assay type: cell-based
T2 construct: expressed in transfected cells; host or cells: insect cells

[3] = molecular target: T3, LPA3 (Homo sapiens, UniProt Q9UBY5); assay: Agonist/antagonist activity in insect cells expressing LPA3; assay type: cell-based; parameters: expressed in transfected cells; host or cells: insect cells
T3 sequence (Q9UBY5 1-353): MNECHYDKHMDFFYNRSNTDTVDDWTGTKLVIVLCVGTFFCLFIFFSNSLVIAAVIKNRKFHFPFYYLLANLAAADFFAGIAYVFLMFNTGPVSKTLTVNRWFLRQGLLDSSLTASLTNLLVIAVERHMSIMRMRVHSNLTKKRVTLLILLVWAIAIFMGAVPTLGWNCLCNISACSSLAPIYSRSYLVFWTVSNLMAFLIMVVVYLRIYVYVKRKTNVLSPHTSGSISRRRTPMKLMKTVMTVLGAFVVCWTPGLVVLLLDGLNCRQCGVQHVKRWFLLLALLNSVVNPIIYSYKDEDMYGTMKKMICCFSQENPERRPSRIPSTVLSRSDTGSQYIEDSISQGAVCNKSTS

[4] = system: platelets; assay: Platelet activation by fluorinated LPA analogues; assay type: cell-based; details: preliminary results
[5] = system: (18:1) LPA pain response; assay: (18:1) LPA pain response; assay type: in vivo; details: preliminary results
[6] = system: LPA receptor; details: Xenopus oocytes; cited from earlier work
[7] = molecular target: T3, LPA3; assay: Potency on the LPA3 receptor; assay type: cell-based; details: preliminary data
[8] = molecular target: Edg7/LPA3 (Homo sapiens, UniProt Q9UBY5); details: Edg7/LPA3 as compared to Edg2/LPA1 or Edg4/LPA2; cited from earlier work

T2 sequence (Q92633 whole entry, species assumed): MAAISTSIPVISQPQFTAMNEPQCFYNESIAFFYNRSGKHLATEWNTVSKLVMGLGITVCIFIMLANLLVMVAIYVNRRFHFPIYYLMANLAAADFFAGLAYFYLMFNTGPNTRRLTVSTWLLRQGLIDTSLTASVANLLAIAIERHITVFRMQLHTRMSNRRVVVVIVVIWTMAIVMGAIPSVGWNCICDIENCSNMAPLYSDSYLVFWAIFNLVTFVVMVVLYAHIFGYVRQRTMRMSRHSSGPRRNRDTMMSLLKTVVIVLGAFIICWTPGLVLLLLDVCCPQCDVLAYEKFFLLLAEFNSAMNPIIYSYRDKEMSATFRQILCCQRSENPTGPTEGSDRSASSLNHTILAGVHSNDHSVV
T1 sequence (Q9HBW0 whole entry, species assumed): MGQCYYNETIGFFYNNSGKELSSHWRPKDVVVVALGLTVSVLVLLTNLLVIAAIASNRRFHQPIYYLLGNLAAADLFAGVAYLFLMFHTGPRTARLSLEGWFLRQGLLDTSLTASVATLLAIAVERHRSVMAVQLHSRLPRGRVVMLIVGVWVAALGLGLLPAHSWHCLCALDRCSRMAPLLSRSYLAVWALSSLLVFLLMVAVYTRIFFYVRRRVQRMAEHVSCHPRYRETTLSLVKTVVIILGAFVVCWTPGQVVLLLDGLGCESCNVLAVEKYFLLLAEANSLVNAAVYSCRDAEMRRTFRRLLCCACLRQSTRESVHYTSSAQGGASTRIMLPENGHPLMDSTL

CCCCCCCCCCCCCCCC(=O)O[C@H](CF)COP(=O)(O)O [Compound 1b, 1-Phospho-2(S)-(palmitoyl)-3-fluorine-propane-1,2-diol]
agonist or antagonist activity [1]: failed to show either significant agonist or antagonist activity | agonist or antagonist activity [2]: failed to show either significant agonist or antagonist activity | agonist or antagonist activity [3]: failed to show either significant agonist or antagonist activity | ability to activate platelets [4]: able to activate platelets | agonism of the (18:1) LPA pain response [5]: partial agonists

CCCCCCCCCCCCCCCC(=O)NC(COP(=O)(O)O)C(=O)O (centres unmarked) [compound 33]
antagonism of LPA receptor function [6]: potent competitive antagonists

CCCCCCCC/C=C\CCCCCCCC(=O)O[C@H](CF)COP(=O)(O)O [Compound 1c, 1-Phospho-2(S)-(oleoyl)-3-fluorine-propane-1,2-diol]
potency on LPA3 relative to 1a (R) ([7]; relative to 1a (R)): approximately 100 fold | potency relative to natural 18:1 LPA on the LPA3 receptor [7]: somewhat more potent

CCCCCCCCCCCCCCCC(=O)NC(Cc1ccc(OP(=O)(O)O)cc1)C(=O)O (centres unmarked) [compound 34]
antagonism of LPA receptor function [6]: potent competitive antagonists

[1-Fluoro-3(S)-hydroxyl-4-(oleoyloxy)butyl]phosphonate [Compound 3aa]
potency on LPA3 relative to 3ab (R) ([7]; relative to 3ab (R)): approximately 100 fold | potency relative to natural 18:1 LPA on the LPA3 receptor [7]: 1000 fold

CCCCCCCC/C=C\CCCCCCCC(=O)O[C@H](CF)COP(=O)(O)O [Compound 1a, 1-Phospho-2(S)-(oleoyl)-3-fluorine-propane-1,2-diol]
agonist or antagonist activity [1]: failed to show either significant agonist or antagonist activity | agonist or antagonist activity [2]: failed to show either significant agonist or antagonist activity | agonist or antagonist activity [3]: failed to show either significant agonist or antagonist activity | ability to activate platelets [4]: able to activate platelets | agonism of the (18:1) LPA pain response [5]: partial agonists

CCCCCCCC/C=C\CCCCCCCC(=O)OC[C@@H](COP(O)(O)=S)OC [OMPT]
receptor subtype selectivity [8]: preferred selectivity for Edg7/LPA3
